“Also recorded” adds a separate entry of the source. Ends that are not written are not given here.
How the values were obtained:
[1] = system: microorganisms; test: Morphology, biofilm and growth disruption by peptides (Table 5); format: cell-based; parameters: key: A: Peptide aggregates; B: Less hyphal formation; Clumps; Diffuse clumps and small polyps; F: Diffuse growth; H: Thin; I: Growth inhibition; Microcolony formation; Rippled; Small polyps; Thick; W: Halo formation on top, microlonies on bottom
Description: In certain embodiments peptides that induce alterations in phenotype or other biological activities can also be used as antimicrobial effector moieties.

[2] = system: bacteria; test: Binding of targeting peptides to microorganisms (Table 3); conditions: preferably 1x PBS
[3] = microorganism the targeting peptide binds, binding in aqueous buffers that varied with peptide solubility
[4] = microorganism bound by the targeting peptide, binding in aqueous buffers chosen by peptide solubility
[5] = peptide binding in aqueous buffers that varied depending on peptide solubility

LIQKGLNQTFIVVIRLNNFIKKS [PF-013]
Organism, effect ([1]; C. jeikeium): C. jeikeium (D)
Organism, effect ([1]; M. luteus): M. luteus (D)
Organism, effect ([1]; MRSA): MRSA (R)
Organism, effect ([1]; S. epidermidis): S. epidermidis (C)
Target(s) [2, 3]: M. luteus and P. mirabilis and E. coli and P. aeruginosa and MRSA and S. pneumoniae and C. jeikeium and C. jejuni

LMFFSENMDKRDTLSGKFRYFAGSKVIKLMNWLSENGK [PF-226]
Organism, effect ([1]; M. luteus): M. luteus (T)
Organism, effect ([1]; S. epidermidis): S. epidermidis (C)
Target(s) [2, 4]: A. baumannii

LNFRAENKILEKIHISLIDTVEGSA [PF-575]
Organism, effect (morphology, biofilm and growth disruption) ([1]; C. jeikeium): C. jeikeium (A)
Organism, effect (morphology, biofilm and growth disruption) ([1]; C. jejuni): C. jejuni (R)
Organism, effect (morphology, biofilm and growth disruption) ([1]; P. aeruginosa): P. aeruginosa (A)
Organism, effect (morphology, biofilm and growth disruption) ([1]; S. pneumoniae): S. pneumoniae (A)
Target(s) (microorganisms bound by the targeting peptide) [2, 5]: M. luteus and E. coli and C. albicans and MRSA and S. pneumoniae and E. faecalis and C. jeikeium

LSEMERRRLRKRA-NH2 [PF-529]
Organism, effect (morphology, biofilm and growth disruption) ([1]; S. pneumoniae): S. pneumoniae (H)
Target(s) (microorganisms bound by the targeting peptide) [2, 5]: S. epidermidis and E. coli and C. albicans and MRSA and S. pneumoniae and E. faecalis and C. jeikeium

LSLATFAKIFMTRSNWSLKRFNRL [PF-278]
Organism, effect ([1]; C. albicans): C. albicans (B)
Organism, effect ([1]; M. luteus): M. luteus (R)
Organism, effect ([1]; S. epidermidis): S. epidermidis (I)
Target(s) [2, 4]: M. luteus; also recorded: A. baumannii

LSPRPIIVSRRSRADNNNDWSR [PF-143]
Organism, effect ([1]; P. aeruginosa): P. aeruginosa (C)
Target(s) [2, 4]: S. epidermidis and MRSA and C. jeikeium

MGIIAGIIKFIKGLIEKFTGK [PF-006]
Organism, effect ([1]; B. subtilis): B. subtilis (I)
Organism, effect ([1]; C. jejuni): C. jejuni (D)
Organism, effect ([1]; M. luteus): M. luteus (A)
Organism, effect ([1]; MRSA): MRSA (I)
Organism, effect ([1]; S. epidermidis): S. epidermidis (D)
Organism, effect ([1]; S. pneumoniae): S. pneumoniae (R)
Target(s) [2, 3]: S. epidermidis and M. luteus and E. coli and P. aeruginosa and MRSA and E. faecalis and C. jeikeium and C. jejuni

MIRIRSPTKKKLNRNSISDWKSNTSGRFFY [PF-283]
Organism, effect ([1]; B. subtilis): B. subtilis (H)
Organism, effect ([1]; S. epidermidis): S. epidermidis (H)
Target(s) [2, 4]: B. subtilis; also recorded: B. fragilis; also recorded: C. difficile

MKRRRCNWCGKLFYLEEKSKEAYCCKECRKKAKKVKK [PF-307]
Organism, effect ([1]; B. subtilis): B. subtilis (H)
Organism, effect ([1]; C. albicans): C. albicans (B)
Organism, effect ([1]; S. epidermidis): S. epidermidis (T)
Target(s) [2, 4]: S. epidermidis; also recorded: B. subtilis; also recorded: B. fragilis; also recorded: C. difficile

MQIFYIKTKIFLSFFLFLLIFSQCFYKIEE [PF-442]
Organism, effect (morphology, biofilm and growth disruption) ([1]; MRSA): MRSA (M)
Organism, effect (morphology, biofilm and growth disruption) ([1]; S. pneumoniae): S. pneumoniae (C)
Target(s) (microorganisms bound by the targeting peptide) [2, 5]: S. epidermidis; also recorded: E. coli; also recorded: C. albicans; also recorded: S. pneumoniae; also recorded: E. faecalis

NTNDLLQAFELMGLGMAGVFIVLGILYIVAELLIKIFPVNN [PF-C194]
Organism, effect (morphology, biofilm and growth disruption) ([1]; F. nucleatum): F. nucleatum (T)
Organism, effect (morphology, biofilm and growth disruption) ([1]; P. gingivalis): P. gingivalis (T)
Organism, effect (morphology, biofilm and growth disruption) ([1]; S. mutans): S. mutans (F)
Target(s) (microorganism bound by the targeting peptide) [2, 5]: A. naeslundii; also recorded: F. nucleatum; also recorded: P. gingivalis; also recorded: S. mutans; also recorded: T. denticola

NYAVVSHT [PF-209]
Organism, effect ([1]; MRSA): MRSA (I)
Organism, effect ([1]; P. aeruginosa): P. aeruginosa (H)
Organism, effect ([1]; S. epidermidis): S. epidermidis (C)
Target(s) [2, 4]: C. albicans; also recorded: C. jeikeium; also recorded: C. jejuni

PDAPRTCYHKPILAALSRIVVTDR [PF-524]
Organism, effect (morphology, biofilm and growth disruption) ([1]; E. coli): E. coli (M)
Organism, effect (morphology, biofilm and growth disruption) ([1]; E. faecalis): E. faecalis (C)
Organism, effect (morphology, biofilm and growth disruption) ([1]; MRSA): MRSA (C)
Organism, effect (morphology, biofilm and growth disruption) ([1]; S. pneumoniae): S. pneumoniae (M)
Target(s) (microorganisms bound by the targeting peptide) [2, 5]: S. epidermidis and E. coli and P. aeruginosa and C. albicans and MRSA and S. pneumoniae and E. faecalis and C. jeikeium

PF-002 (chain 1 NDDAQ; chain 2 NDDAQ; Peptide with targeting and/or antimicrobial activity)
Organism, effect ([1]; B. subtilis): B. subtilis (R)
Organism, effect ([1]; S. pneumoniae): S. pneumoniae (H)
Target(s) [2, 3]: S. epidermidis; also recorded: P. mirabilis; also recorded: C. albicans; also recorded: C. jeikeium; also recorded: C. jejuni

PF-003 (chain 1 MNNWIKVAQISVTVINEVIDIMKEKQNGGK; chain 2 MNNWIKVAQISVTVINEVIDIMKEKQNGGK; Peptide with targeting and/or antimicrobial activity)
Organism, effect ([1]; C. jeikeium): C. jeikeium (A)
Organism, effect ([1]; M. luteus): M. luteus (A)
Organism, effect ([1]; MRSA): MRSA (R)
Organism, effect ([1]; S. epidermidis): S. epidermidis (D)
Target(s) [2, 3]: S. epidermidis and M. luteus and P. mirabilis and C. albicans and MRSA and C. jeikeium

PF-008 (chain 1 MIEIGSIAYLNGGSKKYNHILNQENR; chain 2 MIEIGSIAYLNGGSKKYNHILNQENR; Peptide with targeting and/or antimicrobial activity)
Organism, effect ([1]; B. subtilis): B. subtilis (D)
Organism, effect ([1]; C. jejuni): C. jejuni (R)
Target(s) [2, 3]: S. epidermidis and M. luteus and MRSA and C. jejuni

PF-009 (chain 1 SKKYNHILNQENR; chain 2 SKKYNHILNQENR; Peptide with targeting and/or antimicrobial activity)
Organism, effect ([1]; S. epidermidis): S. epidermidis (S)
Target(s) [2, 3]: M. luteus; also recorded: P. mirabilis; also recorded: C. albicans

PF-010 (chain 1 MDIDVNKLLQAFVYFKSFEKLRHNNS; chain 2 MDIDVNKLLQAFVYFKSFEKLRHNNS; Peptide with targeting and/or antimicrobial activity)
Organism, effect ([1]; C. jeikeium): C. jeikeium (A)
Organism, effect ([1]; M. luteus): M. luteus (A)
Organism, effect ([1]; MRSA): MRSA (R)
Organism, effect ([1]; S. epidermidis): S. epidermidis (S)
Target(s) [2, 3]: S. epidermidis; also recorded: M. luteus; also recorded: E. coli; also recorded: C. albicans

PF-065 (LEKNTRDNYFIHAIDRIYINTSKGLFPESELVAWG; Peptide with targeting and/or antimicrobial activity)
Organism, effect ([1]; C. jeikeium): C. jeikeium (A)
Organism, effect ([1]; MRSA): MRSA (R)
Organism, effect ([1]; S. epidermidis): S. epidermidis (D)
Target(s) [2, 3]: M. luteus and E. coli and P. aeruginosa and C. albicans and MRSA and S. pneumoniae and C. jeikeium and C. jejuni

PF-069 (FDPVPLKKDKSASKHSHKHNH; Peptide with targeting and/or antimicrobial activity)
Organism, effect ([1]; B. subtilis): B. subtilis (D)
Organism, effect ([1]; C. jejuni): C. jejuni (R)
Target(s) [2, 3]: E. faecalis; also recorded: C. jejuni

PF-070 (SMVKSEIVDLLNGEDNDD; Peptide with targeting and/or antimicrobial activity)
Organism, effect ([1]; B. subtilis): B. subtilis (D)
Target(s) [2, 3]: S. epidermidis; also recorded: C. jejuni

PF-074 (RDIHPIYFMTKD; Peptide with targeting and/or antimicrobial activity)
Organism, effect ([1]; MRSA): MRSA (M)
Organism, effect ([1]; S. epidermidis): S. epidermidis (D)
Target(s) [2, 4]: S. epidermidis and M. luteus and MRSA

PF-099 (EIIAYLEGRFANA; Peptide with targeting and/or antimicrobial activity)
Organism, effect ([1]; C. jeikeium): C. jeikeium (C)
Organism, effect ([1]; S. epidermidis): S. epidermidis (D)
Target(s) [2, 4]: S. epidermidis; also recorded: M. luteus; also recorded: E. coli; also recorded: C. jeikeium

PF-123 (TTRPQVAEDRQLDDALKETFPASDPISP; Peptide with targeting and/or antimicrobial activity)
Organism, effect ([1]; S. epidermidis): S. epidermidis (M)
Target(s) [2, 4]: M. luteus; also recorded: E. coli

PF-128 (GIKVVAARFEEIQFSENFDSIILA; Peptide with targeting and/or antimicrobial activity)
Organism, effect ([1]; P. aeruginosa): P. aeruginosa (C)
Organism, effect ([1]; S. epidermidis): S. epidermidis (D)
Target(s) [2, 4]: M. luteus; also recorded: P. aeruginosa; also recorded: E. faecalis

PF-129 (MKLLARDPWVCAWNDIW; Peptide with targeting and/or antimicrobial activity)
Organism, effect ([1]; C. jeikeium): C. jeikeium (R)
Organism, effect ([1]; S. epidermidis): S. epidermidis (M)
Target(s) [2, 4]: S. epidermidis and MRSA and E. faecalis and C. jeikeium and C. jejuni

PF-133 (GDPTAGQKPVECP; Peptide with targeting and/or antimicrobial activity)
Organism, effect ([1]; C. jeikeium): C. jeikeium (R)
Target(s) [2, 4]: S. epidermidis; also recorded: C. jeikeium; also recorded: C. jejuni; also recorded: M. smegmatis

PF-135 (PPARPARIPQTPTLHGASLFRQRS; Peptide with targeting and/or antimicrobial activity)
Organism, effect ([1]; C. jeikeium): C. jeikeium (R)
Target(s) [2, 4]: S. epidermidis and M. luteus and E. coli and P. aeruginosa and MRSA and C. jeikeium and M. smegmatis

PF-144 (RSGQPVGRPSRRAWLR; Peptide with targeting and/or antimicrobial activity)
Organism, effect ([1]; S. pneumoniae): S. pneumoniae (H)
Target(s) [2, 4]: S. epidermidis and M. luteus and E. coli and C. albicans and MRSA and S. pneumoniae and E. faecalis and C. jeikeium

PF-149 (GKVSVLTRVPRSLGGAPANQ; Peptide with targeting and/or antimicrobial activity)
Organism, effect ([1]; MRSA): MRSA (H)
Target(s) [2, 4]: S. epidermidis and M. luteus and E. coli and MRSA and C. jeikeium

PF-153 (GILARADCSQIA; Peptide with targeting and/or antimicrobial activity)
Organism, effect ([1]; C. jeikeium): C. jeikeium (C)
Organism, effect ([1]; S. epidermidis): S. epidermidis (M)
Target(s) [2, 4]: M. luteus and P. mirabilis and E. coli and MRSA

PF-156 (LITAEQPATAPIAGK; Peptide with targeting and/or antimicrobial activity)
Organism, effect ([1]; MRSA): MRSA (H)
Target(s) [2, 4]: S. epidermidis; also recorded: C. jeikeium

Source: US9597407B2, “Targeted antimicrobial moieties” (C3 Jian, Inc., priority 2009, dated 2017)
